Reference: US20080318908A1, “USE OF GABA AND GABAB AGONISTS” (TRUSTEES OF TUFTS COLLEGE, priority 2002, published 2008)

Columns and labels:
Type in all cases: cell-based, rat
[1] = tested on: islets; experiment: Glucose-stimulated proliferation in islets (DNA content)
Procedure: Others have shown that islet mass can increase by as much as 50% in just 96 hours of glucose infusion in vivo, an effect that results from increases in both cell size and cell number^15. Given that metabolism of glucose alone promotes secretion from β cells, we tested the hypothesis that glucose-stimulated proliferation in islets involves the activation of GABAB receptors by GABA released during glucose application. Islets were exposed to 5.6 mM glucose (a maximal proliferative stimulus in human islets) for 4.75 hours in the presence or absence of 2OH-saclofen or the GBR1 N-terminal antibody. Glucose promoted a small, but significant, 7±1% stimulation of control islets during this time (FIG. 5A).

[2] = tested on: islets; experiment: BrdU labeling of dividing islet cells; details: 4.75 hours; GABA-treated versus control islets
Procedure: To identify which cells in islets underlie the increase in DNA synthesis, cells treated with GABA were exposed to BrdU, to label the dividing cells, and compared to control cells. […] Given the brief incorporation period (4 hours following GABA exposure), such profiles imply that the responsive cells are likely to be synchronized in S phase.

[3] = tested on: islets; experiment: [3H]thymidine incorporation in islets; details: label present throughout the 4.75 hour experimental period
Procedure: [^3H]thymidine incorporation was employed as an alternative assay for DNA synthesis, with similar results to those of the fluorescence assay. The labeled nucleotide was added to the culture medium and was present throughout the 4.75 hour experimental period. GABA, and the agonist baclofen, acting via GABAB receptors produced a respective 143±19% and 115±4% increase in [^3H]thymidine incorporation (FIG. 4B).

[4] = tested on: islets; experiment: Islet total DNA content, Cyquant fluorescence assay
Procedure: To examine the potential function of GABAB receptor signaling in islet tissue, islets were enzymatically isolated from exocrine pancreas and studied in vitro. Islets were size-selected for these studies because of our observation that small islets (<150 μm diameter) express GABAB receptors more abundantly. Islets (equivalent to ˜10,000 cells per well of a 96 well culture plate) were incubated for 45 minutes with (or without) 100 μM GABA, washed once with growth medium M199, maintained for 4 hours at 37° C., and subsequently analyzed for total DNA content using a Cyquant (Molecular Probes) fluorescence assay. […] Large islets, by contrast, were much less responsive to GABA; increasing only by 15±4.5% in the same time period. The growth-promoting effect of GABA was mimicked by the selective GABAB receptor agonist, S-baclofen and inhibited with either 2OH-saclofen (a selective inhibitor of GABAB receptors) or the N-terminal antibody to the GABAB receptor (FIG. 4A).
To further evaluate the interactions between glucose and GABAB receptor activation, we measured GABA-mediated proliferation over a range of glucose concentrations.

[5] = tested on: spleen cells; experiment: DNA content of dissociated cultured spleen, Cyquant assay; details: 100 micromolar for 45 minutes, then four hours in fresh medium at 37°
Procedure: An experiment to test the ability of GABA and the GABAB receptor agonist to stimulate growth of other tissues was undertaken. Rat spleen was mechanically dissociated in trypsin, washed, and plated identical to the experiments using rat islets, described above. The dissociated tissue was cultured in the presence of 100 micromolar GABA or baclofen for 45 minutes and compared to cultured but untreated dissociated spleen. After 45 minutes the media was changed and the tissue incubated in fresh medium for four hours at 37°. DNA measurements were made by the Cyquant assay by Molecular Probes.

OC[C@H]1OC(O)[C@H](O)[C@@H](O)[C@@H]1O (stereo partly shown) [Glucose]
stimulation of control islets (DNA) ([1]; 5.6 mM glucose for 4.75 hours): 7±1%

NCCCC(=O)O [GABA, 4-aminobutanoic acid]
BrdU incorporation [2]: detectable BrdU incorporation
increase in [3H]thymidine incorporation [3]: 143±19%
GABA-stimulated DNA synthesis at moderate glucose ([4]; 45 min exposure to 100 μM GABA, 5.6 mM glucose): peaked at moderate glucose concentrations
GABA-stimulated DNA synthesis at higher glucose ([4]; 45 min exposure to 100 μM GABA, 16.7 mM glucose): suppressed the stimulatory effect of GABA
increase in DNA synthesis, large islets ([4]; large islets, 100 μM GABA 45 minutes, same 4.75 hour period): 15±4.5%
increase in DNA synthesis, small islets ([4]; small islets (<150 μm diameter), 100 μM GABA 45 minutes, then 4 hours at 37° C., 4.75 hours total): 45%
DNA content of cultured spleen cells versus untreated [5]: promoted an increase in the DNA content

NC[C@@H](CC(=O)O)c1ccc(Cl)cc1 [S-baclofen, reference compound]
growth-promoting effect of GABA mimicked by agonist ([4]; isolated islets, FIG. 4A, 100 μM): mimicked

NCC(CC(=O)O)c1ccc(Cl)cc1 (stereo not shown) [baclofen, 4-amino-3-(4-chlorophenyl)butanoic acid, reference compound]
increase in [3H]thymidine incorporation [3]: 115±4%
DNA content of cultured spleen cells versus untreated [5]: promoted an increase in the DNA content

NCC(O)(CS(=O)(=O)O)c1ccc(Cl)cc1 (stereo not shown) [2OH-saclofen, reference compound]
DNA, % of DNA content measured at the beginning of the incubation period ([1]; 5.6 mM glucose for 4.75 hours in the presence of 2OH-saclofen): 92±4%
effect on growth-promoting effect of GABA ([4]; isolated islets with GABA, FIG. 4A, 100 μM antagonist or antibody 1:1000): inhibited
